Source: the supplement of paper PMC11208160

Experiment: recombinant barcode read abundance after kanamycin selection (control-corrected) (log10(CPM+1)); higher = more efficient recombination; sequences stand for … in AGTGCAGAGAAAATCGGCCAGTTTTCTCTGCCTGCAGTCCGCATGCCGT…ATTTATGCAGCGGACTGCCTTTCTCCCAAAGTGATAAACCGGACAGTATCATGGACCGGTTTTCCCGGTAATCCGTATTTGCAAGGTTGGTTTCACT; site = the 11-nt target
Method in brief: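 This pooled E. coli screen matched targets with IS621 bridge RNA target-binding loops. Plating was done in duplicate on chloramphenicol/ampicillin LB agar as a control and on chloramphenicol/ampicillin/kanamycin plus 0.1 mM IPTG. Recombination efficiency reflects barcode counts at recombinant junctions as counts per million, averaged and control-corrected. The figures are log10(CPM+1).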

| Sequence | recombinant barcode read abundance (log10) |
| --- | --- |
| CATATTATATGGGTTCTAACCTGTTGCCTTA [CATATTACTAG_LTGcore_TA_RTGcore_TA] (site CATATTACTAG) (LTG core: TA, RTG core: TA) | 0.00689 |
| AGGCGGGCTTGGGTTCTAACCTGTTGCGGGT [AGGCGGGCTCC_LTGcore_CT_RTGcore_AC] (site AGGCGGGCTCC) (LTG core: CT, RTG core: AC) | 0.945 |
| TCTACCCCTTGGGTTCTAACCTGTTGCTGTC [TCTACCCCTCA_LTGcore_CT_RTGcore_GA] (site TCTACCCCTCA) (LTG core: CT, RTG core: GA) | 0.0329 |
| GCGCGACCGTGGGTTCTAACCTGTTGCTTCG [GCGCGACCTAA_LTGcore_CG_RTGcore_CG] (site GCGCGACCTAA) (LTG core: CG, RTG core: CG) | 0.282 |
| GGGAGCCCGTGGGTTCTAACCTGTTGCTGCG [GGGAGCCCTCA_LTGcore_CG_RTGcore_CG] (site GGGAGCCCTCA) (LTG core: CG, RTG core: CG) | 0.113 |
| ATGTCCCCTTGGGTTCTAACCTGTTGCTCTA [ATGTCCCCTGA_LTGcore_CT_RTGcore_TA] (site ATGTCCCCTGA) (LTG core: CT, RTG core: TA) | 0.107 |
| ATGCTTTCTTGGGTTCTAACCTGTTGCCTGC [ATGCTTTCTAG_LTGcore_CT_RTGcore_GC] (site ATGCTTTCTAG) (LTG core: CT, RTG core: GC) | 0.295 |
| TGATACCAATGGGTTCTAACCTGTTGCGTAG [TGATACCCTAC_LTGcore_AA_RTGcore_CT] (site TGATACCCTAC) (LTG core: AA, RTG core: CT) | 0.143 |
| CGCGCCCAATGGGTTCTAACCTGTTGCGGTT [CGCGCCCCTCC_LTGcore_AA_RTGcore_AA] (site CGCGCCCCTCC) (LTG core: AA, RTG core: AA) | 0.134 |
| GTCGCCCATTGGGTTCTAACCTGTTGCTAAT [GTCGCCCCTTA_LTGcore_AT_RTGcore_AT] (site GTCGCCCCTTA) (LTG core: AT, RTG core: AT) | 0.182 |
| ATGCTTTCTTGGGTTCTAACCTGTTGCCTTC [ATGCTTTCTAG_LTGcore_CT_RTGcore_GA] (site ATGCTTTCTAG) (LTG core: CT, RTG core: GA) | 0.0663 |
| GAGTCCACTTGGGTTCTAACCTGTTGCGTAG [GAGTCCACTAC_LTGcore_CT_RTGcore_CT] (site GAGTCCACTAC) (LTG core: CT, RTG core: CT) | 2.39 |
| TGTATTCCTTGGGTTCTAACCTGTTGCCTTT [TGTATTCCTAG_LTGcore_CT_RTGcore_AA] (site TGTATTCCTAG) (LTG core: CT, RTG core: AA) | 0.0134 |
| TGATACCGATGGGTTCTAACCTGTTGCGTAG [TGATACCCTAC_LTGcore_GA_RTGcore_CT] (site TGATACCCTAC) (LTG core: GA, RTG core: CT) | 0.221 |
| GCGCGACCTTGGGTTCTAACCTGTTGCTTGG [GCGCGACCTAA_LTGcore_CT_RTGcore_CC] (site GCGCGACCTAA) (LTG core: CT, RTG core: CC) | 0 |
| TTATAAAGCTGGGTTCTAACCTGTTGCCTAG [TTATAAACTAG_LTGcore_GC_RTGcore_CT] (site TTATAAACTAG) (LTG core: GC, RTG core: CT) | 0.0375 |
| GGGCGGAGATGGGTTCTAACCTGTTGCGGAG [GGGCGGACTCC_LTGcore_GA_RTGcore_CT] (site GGGCGGACTCC) (LTG core: GA, RTG core: CT) | 0.539 |
| ATGCTTTGTTGGGTTCTAACCTGTTGCCTAC [ATGCTTTCTAG_LTGcore_GT_RTGcore_GT] (site ATGCTTTCTAG) (LTG core: GT, RTG core: GT) | 0.302 |
| TGTATTCCTTGGGTTCTAACCTGTTGCCTAA [TGTATTCCTAG_LTGcore_CT_RTGcore_TT] (site TGTATTCCTAG) (LTG core: CT, RTG core: TT) | 0.0404 |
| ATGCTTTCGTGGGTTCTAACCTGTTGCCTCG [ATGCTTTCTAG_LTGcore_CG_RTGcore_CG] (site ATGCTTTCTAG) (LTG core: CG, RTG core: CG) | 0.295 |
| TTATAAACTTGGGTTCTAACCTGTTGCCTTC [TTATAAACTAG_LTGcore_CT_RTGcore_GA] (site TTATAAACTAG) (LTG core: CT, RTG core: GA) | 0.0607 |
| CGCGCCCCTTGGGTTCTAACCTGTTGCGGAC [CGCGCCCCTCC_LTGcore_CT_RTGcore_GT] (site CGCGCCCCTCC) (LTG core: CT, RTG core: GT) | 0.0615 |
| GGGAGCCACTGGGTTCTAACCTGTTGCTGAG [GGGAGCCCTCA_LTGcore_AC_RTGcore_CT] (site GGGAGCCCTCA) (LTG core: AC, RTG core: CT) | 0 |

| Sequence | recombinant barcode read abundance (log10) |
| --- | --- |
| ACGGGACCGTGGGTTCTAACCTGTTGCAGAG [ACGGGACCTCT_LTGcore_CG_RTGcore_CT] (site ACGGGACCTCT) (LTG core: CG, RTG core: CT) | 1.86 |
| GCGCGACAATGGGTTCTAACCTGTTGCTTAG [GCGCGACCTAA_LTGcore_AA_RTGcore_CT] (site GCGCGACCTAA) (LTG core: AA, RTG core: CT) | 0 |
| AGTCTTACGTGGGTTCTAACCTGTTGCCAAG [AGTCTTACTTG_LTGcore_CG_RTGcore_CT] (site AGTCTTACTTG) (LTG core: CG, RTG core: CT) | 0.0383 |
| AGGCGGTTTTGGGTTCTAACCTGTTGCTTAA [AGGCGGTCTAA_LTGcore_TT_RTGcore_TT] (site AGGCGGTCTAA) (LTG core: TT, RTG core: TT) | 0.0993 |
| GGTGCCCCTTGGGTTCTAACCTGTTGCCGCA [GGTGCCCCTCG_LTGcore_CT_RTGcore_TG] (site GGTGCCCCTCG) (LTG core: CT, RTG core: TG) | 0.0728 |
| AAACATGAATGGGTTCTAACCTGTTGCCTAG [AAACATGCTAG_LTGcore_AA_RTGcore_CT] (site AAACATGCTAG) (LTG core: AA, RTG core: CT) | 0 |
| TAAGAATACTGGGTTCTAACCTGTTGCCTAG [TAAGAATCTAG_LTGcore_AC_RTGcore_CT] (site TAAGAATCTAG) (LTG core: AC, RTG core: CT) | 0.0833 |
| GCGCGACGTTGGGTTCTAACCTGTTGCTTAG [GCGCGACCTAA_LTGcore_GT_RTGcore_CT] (site GCGCGACCTAA) (LTG core: GT, RTG core: CT) | 0.0314 |
| AAACAGTCTTGGGTTCTAACCTGTTGCCTAT [AAACAGTCTAG_LTGcore_CT_RTGcore_AT] (site AAACAGTCTAG) (LTG core: CT, RTG core: AT) | 1.32 |
| TCGCGACGCTGGGTTCTAACCTGTTGCCGAG [TCGCGACCTCG_LTGcore_GC_RTGcore_CT] (site TCGCGACCTCG) (LTG core: GC, RTG core: CT) | 0.235 |
| GAGTCCTCTTGGGTTCTAACCTGTTGCCTTT [GAGTCCTCTAG_LTGcore_CT_RTGcore_AA] (site GAGTCCTCTAG) (LTG core: CT, RTG core: AA) | 0.398 |
| GTCGCCCCTTGGGTTCTAACCTGTTGCTATC [GTCGCCCCTTA_LTGcore_CT_RTGcore_GA] (site GTCGCCCCTTA) (LTG core: CT, RTG core: GA) | 0.434 |
| GGGCGGAGCTGGGTTCTAACCTGTTGCGGAG [GGGCGGACTCC_LTGcore_GC_RTGcore_CT] (site GGGCGGACTCC) (LTG core: GC, RTG core: CT) | 0.0821 |
| TGTATTCTGTGGGTTCTAACCTGTTGCCTAG [TGTATTCCTAG_LTGcore_TG_RTGcore_CT] (site TGTATTCCTAG) (LTG core: TG, RTG core: CT) | 0.0339 |
| GAGCCCAATTGGGTTCTAACCTGTTGCCTAT [GAGCCCACTAG_LTGcore_AT_RTGcore_AT] (site GAGCCCACTAG) (LTG core: AT, RTG core: AT) | 0.154 |
| AGGAGGTCCTGGGTTCTAACCTGTTGCCTGG [AGGAGGTCTAG_LTGcore_CC_RTGcore_CC] (site AGGAGGTCTAG) (LTG core: CC, RTG core: CC) | 0.227 |
| GCGGGACGATGGGTTCTAACCTGTTGCCTTC [GCGGGACCTAG_LTGcore_GA_RTGcore_GA] (site GCGGGACCTAG) (LTG core: GA, RTG core: GA) | 0.2 |
| TGATACCGTTGGGTTCTAACCTGTTGCGTAG [TGATACCCTAC_LTGcore_GT_RTGcore_CT] (site TGATACCCTAC) (LTG core: GT, RTG core: CT) | 0.236 |
| AAACAGTGATGGGTTCTAACCTGTTGCCTTC [AAACAGTCTAG_LTGcore_GA_RTGcore_GA] (site AAACAGTCTAG) (LTG core: GA, RTG core: GA) | 0.0385 |
| AGGCCTCCTTGGGTTCTAACCTGTTGCCTAC [AGGCCTCCTAG_LTGcore_CT_RTGcore_GT] (site AGGCCTCCTAG) (LTG core: CT, RTG core: GT) | 1.06 |
| TGTATTCCTTGGGTTCTAACCTGTTGCCTGG [TGTATTCCTAG_LTGcore_CT_RTGcore_CC] (site TGTATTCCTAG) (LTG core: CT, RTG core: CC) | 0.0432 |
| CATATTAGATGGGTTCTAACCTGTTGCCTTC [CATATTACTAG_LTGcore_GA_RTGcore_GA] (site CATATTACTAG) (LTG core: GA, RTG core: GA) | 0.0675 |
